Patent US9540364B2, “Benzimidazole tetrahydrofuran derivatives” (Merck Sharp & Dohme Corp., priority 2012, dated 2017)

Columns and labels:
[1] = target: recombinant human AMPK complex 7 (containing α2β1γ1) (Homo sapiens (Human), UniProt P54646+Q9Y478); assay: In vitro AMPK activation assay (AMPKSAMSF); format: biochemical; conditions: for EC50: inflection point reflecting 50% of the maximum activation; for Emax: recombinant human AMPK complex 7 (α2β1γ1), 10-point titration, read-out: % Maximum AMP Activation of human AMPK Complex 7
Chain of recombinant human AMPK complex 7 (containing α2β1γ1) (P54646 whole entry): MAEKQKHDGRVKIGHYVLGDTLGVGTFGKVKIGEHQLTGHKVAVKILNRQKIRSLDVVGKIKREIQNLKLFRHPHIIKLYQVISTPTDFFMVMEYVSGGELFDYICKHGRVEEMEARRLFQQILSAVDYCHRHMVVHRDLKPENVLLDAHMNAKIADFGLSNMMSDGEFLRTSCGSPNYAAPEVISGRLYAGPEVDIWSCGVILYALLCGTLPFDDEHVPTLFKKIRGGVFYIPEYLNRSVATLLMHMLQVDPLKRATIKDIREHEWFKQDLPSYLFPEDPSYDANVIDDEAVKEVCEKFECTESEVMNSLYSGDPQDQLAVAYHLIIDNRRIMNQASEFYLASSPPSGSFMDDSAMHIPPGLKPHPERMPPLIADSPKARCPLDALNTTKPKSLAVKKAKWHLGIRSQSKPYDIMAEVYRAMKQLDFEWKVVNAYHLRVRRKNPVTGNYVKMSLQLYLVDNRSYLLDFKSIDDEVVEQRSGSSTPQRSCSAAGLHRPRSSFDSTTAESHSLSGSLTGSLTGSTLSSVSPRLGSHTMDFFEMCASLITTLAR
Chain of recombinant human AMPK complex 7 (containing α2β1γ1) (Q9Y478 whole entry): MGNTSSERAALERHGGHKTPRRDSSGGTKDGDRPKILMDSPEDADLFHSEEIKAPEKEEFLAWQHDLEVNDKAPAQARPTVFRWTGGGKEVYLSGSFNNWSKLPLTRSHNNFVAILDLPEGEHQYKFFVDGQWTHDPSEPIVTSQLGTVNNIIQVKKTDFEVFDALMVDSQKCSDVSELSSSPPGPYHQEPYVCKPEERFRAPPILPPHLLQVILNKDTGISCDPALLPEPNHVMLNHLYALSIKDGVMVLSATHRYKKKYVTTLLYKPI
Chain of recombinant human AMPK complex 7 (containing α2β1γ1) (P54619 whole entry partner): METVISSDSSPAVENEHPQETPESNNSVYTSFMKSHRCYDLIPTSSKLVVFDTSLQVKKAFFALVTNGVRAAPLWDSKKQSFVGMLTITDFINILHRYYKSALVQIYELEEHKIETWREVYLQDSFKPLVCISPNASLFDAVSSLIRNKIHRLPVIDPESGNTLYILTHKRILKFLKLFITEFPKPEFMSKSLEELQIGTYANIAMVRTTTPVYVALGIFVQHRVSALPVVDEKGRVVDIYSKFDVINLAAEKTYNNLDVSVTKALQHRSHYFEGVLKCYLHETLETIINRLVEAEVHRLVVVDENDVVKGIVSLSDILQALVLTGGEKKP
Procedure: The recombinant human AMPK complex 1 (containing α1β1γ1) or AMPK complex 7 (containing α2β1γ1) was obtained from baculovirus expression system. Recombinant viruses were generated by cotransfection of AMPK/pBacPak9 clones with Baculogold baculovirus DNA (Pharmingen) in spodoptera frugiperda 21 cells according to the manufacturer's instructions. Each round of virus amplification was performed for 5 days in Grace's medium containing 10% serum. Virus that had been subjected to three rounds of amplification was used for all protein production procedures. To express the AMPK complex, sf21 cells were adapted to serum free medium (SF900 II, Invitrogen) by sequential dilution from serum containing stocks into SF900II medium and maintained in shaker flasks at 90 rpm at 27° C. The recombinant AMPK enzyme complex was produced by triple infection, one recombinant virus for each of the subunits, in sf21 cells under serum free conditions. Cells were infected in log phase, 1×10^6 cells/ml, at a multiplicity of infection of ˜5. Cells were harvested by centrifugation at 10,000×g for 15 minutes after 72 hours of infection with viruses. The insect cell pellet from 2 liters of culture was resuspended in 50 ml lysis buffer (20 mM Tris-HCl, 50 mM NaCl, 50 mM NaF, 30 mM Na PPi, 0.25 M sucrose, 10 mM ZnCl2, 2 mM DTT, 0.4 mg/ml digitonin) and subjected to two cycles of freeze-thaw lysis in a dry-ice ethanol bath. Insoluble material was removed by centrifugation at 10,000×g and the supernatant was fractionated with use of polyethylene glycol (PEG). The protein fraction precipitating between 2.5 and 6% PEG was used for further purification using a Blue-Sepharose step (Zhou et al, J. Clin. Invest. 108, 1167-1174, 2001).
The in vitro AMPK activation assay is performed in a volume of 30 μl in a 384-well plate. Enzyme reactions were assembled in the microtiter plate by adding 15 μl of 2× enzyme in assay buffer (20 mM HEPES, pH 7.3, 5 mM MgCl2, 3 mM DTT, 0.01% Brij 35 and CamK Kinase, to activate AMPK) to wells which contained either DMSO or compound. The reaction was initiated with the addition of 15 μl 2× substrate mixture containing 200 μM ATP, and 3.0 μM fluorescently labeled SAMS (5-FAM-HMRSAMSGLHLVKRR-COOH) in assay buffer. After 45-minute incubation at 25° C., the reaction was stopped by the addition of 70 μl stop buffer (100 mM HEPES, pH 7.3, 40 mM EDTA, 0.015% Brij 35). Phosphorylated 5-FAM SAMS product is assessed using a Caliper EZ Reader LabChip microfluidics reader. Product conversion is determined by calculating the peak heights of the substrate and product and reporting the product/(product+substrate) peak ratio. The 10-point titration data were expressed as % maximum AMP activation. The results were plotted using 4 parameter fit and the inflection point reflecting 50% of the maximum activation was reported as the EC50.

[2] = system: ob/ob and db/db mice; conditions: following 8 weeks of administration; cited from earlier work

## OC[C@H]1OC[C@@H](Oc2nc3cc(-c4ccc(-c5ccc(C6CNCCO6)cc5)cc4)c(Cl)cc3[nH]2)[C@@H]1O (stereo partly drawn) [Example 10]
[1]
  EC50: 34 nM
  Emax: 210%

## OC[C@H]1OC[C@@H](Oc2nc3cc(-c4ccc(-c5cccc(F)c5)cc4)c(Cl)cc3[nH]2)[C@@H]1O [Example 2]
[1]
  EC50: 4290 nM
  Emax: 137%

## CNC(=O)c1ccc(-c2ccc(-c3cc4nc(O[C@@H]5CO[C@H](CO)[C@H]5O)[nH]c4cc3Cl)cc2)cc1 [Example 3]
[1]
  EC50: 8 nM
  Emax: 262%

## CNC(=O)c1ccc(-c2ccc(-c3c(F)cc4[nH]c(O[C@@H]5CO[C@H](CO)[C@H]5O)nc4c3F)cc2)cc1 [Example 14]
[1]
  EC50: 4 nM
  Emax: 340%

## NC(=O)c1ncn([C@@H]2O[C@H](CO)[C@@H](O)[C@H]2O)c1N [AICAR]
[2]
  blood glucose reduction: 35%

## OC[C@H]1OC[C@@H](Oc2nc3c(F)c(-c4ccc(-c5ccc(-n6cccn6)cc5)cc4)c(F)cc3[nH]2)[C@@H]1O [Example 17]
[1]
  EC50: 20 nM
  Emax: 313%

## Cc1cc(-c2ccc(-c3ccc(-c4cc5nc(O[C@@H]6CO[C@H](CO)[C@H]6O)[nH]c5cc4Cl)cc3)cc2)[nH]n1 [Example 4]
[1]
  EC50: 104 nM
  Emax: 172%

## OC[C@H]1OC[C@@H](Oc2nc3c(F)c(-c4ccc(-c5ccc(-n6ccnn6)cc5)cc4)c(F)cc3[nH]2)[C@@H]1O [Example 13]
[1]
  EC50: 5 nM
  Emax: 283%

## OC[C@H]1OC[C@@H](Oc2nc3cc(-c4ccc(-c5ccc(-n6ccnn6)cc5)cc4)c(Cl)cc3[nH]2)[C@@H]1O [Example 7]
[1]
  EC50: 8 nM
  Emax: 233%

## OC[C@H]1OC[C@@H](Oc2nc3cc(-c4ccc(-c5ccccc5)cc4)c(Cl)cc3[nH]2)[C@@H]1O [Example 1, (2R,3R,4R)-4-[[6-chloro-5-(4-phenylphenyl)-1H-benzimidazol-2-yl]oxy]-2-(hydroxymethyl)tetrahydrofuran-3-ol]
[1]
  EC50: 216 nM
  Emax: 301%

## CC(CO)(CO)c1ccc(-c2ccc(-c3c(F)cc4[nH]c(O[C@@H]5CO[C@H](CO)[C@H]5O)nc4c3F)cc2)cc1 [Example 16]
[1]
  EC50: 6 nM
  Emax: 313%

## OC[C@H]1OC[C@@H](Oc2nc3c(F)c(-c4ccc(-c5ccc(-c6nccc(O)n6)cc5)cc4)c(F)cc3[nH]2)[C@@H]1O [Example 15]
[1]
  EC50: 3 nM
  Emax: 299%

## CC(CO)(CO)c1ccc(-c2ccc(-c3cc4nc(O[C@@H]5CO[C@H](CO)[C@H]5O)[nH]c4cc3Cl)cc2)cc1 [Example 8]
[1]
  EC50: 5 nM
  Emax: 278%

## Cc1cc(-c2ccc(-c3ccc(-c4c(F)cc5[nH]c(O[C@@H]6CO[C@H](CO)[C@H]6O)nc5c4F)cc3)cc2)[nH]n1 [Example 20]
[1]
  EC50: 50 nM
  Emax: 246%

## OC[C@H]1OC[C@@H](Oc2nc3c(F)c(-c4ccc(-c5ccc(-c6nccs6)cc5)cc4)c(F)cc3[nH]2)[C@@H]1O [Example 19]
[1]
  EC50: 67 nM
  Emax: 251%

## OC[C@H]1OC[C@@H](Oc2nc3cc(-c4ccc(-c5ccc(-n6cccn6)cc5)cc4)c(Cl)cc3[nH]2)[C@@H]1O [Example 9]
[1]
  EC50: 33 nM
  Emax: 269%

## N#Cc1ccc(-c2ccc(-c3c(F)cc4[nH]c(O[C@@H]5CO[C@H](CO)[C@H]5O)nc4c3F)cc2)c(F)c1 [Example 21]
[1]
  EC50: 38 nM
  Emax: 230%

## OC[C@H]1OC[C@@H](Oc2nc3c(F)c(-c4ccc(-c5ccc(C6CNCCO6)cc5)cc4)c(F)cc3[nH]2)[C@@H]1O (stereo partly drawn) [Example 18]
[1]
  EC50: 34 nM
  Emax: 316%

## OC[C@H]1OC[C@@H](Oc2nc3cc(-c4ccc(-c5ccc(-c6nccs6)cc5)cc4)c(Cl)cc3[nH]2)[C@@H]1O [Example 12]
[1]
  EC50: 76 nM
  Emax: 170%

## N#Cc1ccc(-c2ccc(-c3cc4nc(O[C@@H]5CO[C@H](CO)[C@H]5O)[nH]c4cc3Cl)cc2)c(F)c1 [Example 5]
[1]
  EC50: 209 nM
  Emax: 288%
